From patent publication US7265260B2, “Transgenic non-human mammals expressing constitutively activated tyrosine kinase receptors” (Bristol-Myers Squibb Company, priority 2002, dated 2007)

Tested on: IGF1R Sal tumor cell line
Experiment: Cytotoxicity assay: inhibition of cell proliferation by [3H]-thymidine incorporation
Assay type: cell-based
Settings: IGF-1R-Sal, IGF1R Sal (CD8-IGF1R) cell line from transgenic mouse xenograft tumor, 72 h exposure, read-out: Cytotoxicity Assay IC50 (nM) against IGF1R Sal tumor cell line
Protocol: The proliferative activity of two IGF1R inhibitors in cells was evaluated in vitro against a cell line derived from a xenograft tumor generated in a transgenic mouse, IGF1R Sal (CD8-IGF1R), which was engineered to overexpress the catalytic domain of the human IGF1R. The two IGF1R inhibitors evaluated were a benzimidazole compound as described in WO02/079192 and U.S. application Ser. No. 10/263,448, hereby incorporated by reference, and paclitaxel. Inhibition of cellular proliferation was also determined in a variety of human tumor xenograft cell lines including, Colo205 (colon), Geo (colon), RD1 (rhabdomyosarcoma), H3396 (breast), and MDA PCa2b (prostate). Proliferation was evaluated by incorporation of [^3H]-thymidine into DNA after a 72 hour exposure to reagents. Cells were plated at 1,500 cells/well in 96-well microtiter plates and 24 hours later cells were exposed to a range of drug concentrations. After 72 hours incubation at 37° C., cells were pulsed with 4 μCi/ml [6-^3H] thymidine (Amersham Pharmacia Biotech, UK) for 3 hours, trypsinized, harvested onto UniFilter-96, GF/B plates (PerkinElmer, Boston, Mass.), and scintillation was measured on a TopCount.NXT (Packard, Conn.). Results are expressed as an IC50, which is the drug concentration required to inhibit cell proliferation by 50% to that of untreated control cells.

CC(=O)O[C@H]1C(=O)[C@@]2(C)[C@H]([C@H](OC(=O)c3ccccc3)[C@]3(O)C[C@H](OC(=O)[C@H](O)[C@@H](NC(=O)c4ccccc4)c4ccccc4)C(C)=C1C3(C)C)[C@]1(OC(C)=O)CO[C@@H]1C[C@@H]2O [paclitaxel]
IC50: 2.9 nM
